The target in one experiment is GST-Bcl-2 (Homo sapiens, UniProt P10415). Kind of experiment: TR-FRET binding assay, GST-Bcl-2 with F-Bak peptide probe. The note with it: TR-FRET Binding Affinity, GST-Bcl-2, F-Bak peptide probe. The essentials:
(§1)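 Compounds were serially diluted in DMSO from a 50 μM starting solution (2× the starting concentration; 10% DMSO). Plates were incubated for 3 h at room temperature, and TR-FRET was read with 340/35 nm excitation and emission at 520/525 nm (F-Bak) and 495/510 nm (Tb antibody). Ki values were calculated using Wang's competitive-binding equation.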

For a further experiment, the target named is GST-Bcl-XL (Homo sapiens, UniProt Q07817). Kind of experiment: TR-FRET binding assay, GST-Bcl-XL with F-Bak peptide probe. The note with it: TR-FRET Binding Affinity, GST-Bcl-XL, F-Bak peptide probe. The essentials:
as §1

Another experiment concerns FL5.12/Bcl-2 cells. The experiment in a line: FL5.12/Bcl-2 cell viability assay under IL-3 withdrawal (CellTitre Glo). It is filed as cell-based, murine. The note with it: Mus musculus, IL-3 withdrawn 48 hrs, then 24 hrs with compound. Summed up: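 Bcl-2-overexpressing murine FL5.12 transfectants underwent IL-3 removal for 48 hrs before a 24 hr compound treatment. Cell viability was quantified with CellTitre Glo.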

A value given as a limit tells only on which side of the number the result lay.

Chain of GST-Bcl-XL (Q07817 whole entry): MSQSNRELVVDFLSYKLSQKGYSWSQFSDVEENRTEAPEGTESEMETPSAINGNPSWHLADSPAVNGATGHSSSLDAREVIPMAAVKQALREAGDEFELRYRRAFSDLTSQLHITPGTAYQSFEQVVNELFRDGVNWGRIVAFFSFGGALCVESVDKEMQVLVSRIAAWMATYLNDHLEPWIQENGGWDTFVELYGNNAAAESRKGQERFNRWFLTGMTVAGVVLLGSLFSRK
Chain of GST-Bcl-2 (P10415 whole entry): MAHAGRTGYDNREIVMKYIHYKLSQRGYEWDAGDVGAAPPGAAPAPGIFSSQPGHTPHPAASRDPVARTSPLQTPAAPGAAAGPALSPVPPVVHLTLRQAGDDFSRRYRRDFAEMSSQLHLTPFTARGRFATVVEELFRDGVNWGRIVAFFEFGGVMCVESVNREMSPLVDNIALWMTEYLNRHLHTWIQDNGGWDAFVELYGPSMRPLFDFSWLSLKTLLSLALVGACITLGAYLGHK

Usually Ki stands for the equilibrium dissociation constant of an inhibitor or competing ligand from its target. Low values mean higher affinity, high ones lower affinity. For orientation: EC50 means the concentration that produces a half-maximal response. `CN1CC(Nc2ccc(S(=O)(=O)NC(=O)c3ccc(N4CCN(CC5=C(c6ccc(Cl)cc6)CC(C)(C)CC5)CC4)cc3Oc3ccc4[nH]ccc4c3)cc2[N+](=O)[O-])CC1=O` (stereo not drawn) [Example 281, 4-(4-{[2-(4-chlorophenyl)-4,4-dimethylcyclohex-1-en-1-yl]methyl}piperazin-1-yl)-2-(1H-indol-5-yloxy)-N-({4-[(1-methyl-5-oxopyrrolidin-3-yl)amino]-3-nitrophenyl}sulfonyl)benzamide]: the figures for the Ki on GST-Bcl-2 and on GST-Bcl-XL were 0.076 nM and 119 nM, respectively. Besides, the EC50 with FL5.12/Bcl-2 cells amounted to 60.2 nM.

Regarding `CN1CC(Nc2ccc(S(=O)(=O)NC(=O)c3ccc(N4CCN(CC5=C(c6ccc(Cl)cc6)CC(C)(C)CC5)CC4)cc3Oc3ccc4[nH]ccc4c3)cc2[N+](=O)[O-])CCC1=O` (stereo not drawn) [Example 282, 4-(4-{[2-(4-chlorophenyl)-4,4-dimethylcyclohex-1-en-1-yl]methyl}piperazin-1-yl)-2-(1H-indol-5-yloxy)-N-({4-[(1-methyl-6-oxopiperidin-3-yl)amino]-3-nitrophenyl}sulfonyl)benzamide], the Ki on GST-Bcl-2 was 0.164 nM; on GST-Bcl-XL, 562 nM. Also, the EC50 in the experiment on FL5.12/Bcl-2 cells was 92.2 nM.

Regarding `CC1(C)CCC(CN2CCN(c3ccc(C(=O)NS(=O)(=O)c4ccc(NN5CCCCC5)c([N+](=O)[O-])c4)c(Oc4cccc5[nH]ccc45)c3)CC2)=C(c2ccc(Cl)cc2)C1` [Example 283, 4-(4-{[2-(4-chlorophenyl)-4,4-dimethylcyclohex-1-en-1-yl]methyl}piperazin-1-yl)-2-(1H-indol-4-yloxy)-N-{[3-nitro-4-(piperidin-1-ylamino)phenyl]sulfonyl}benzamide], the figures for the Ki on GST-Bcl-2 and on GST-Bcl-XL were 47.5 nM and above 660 nM, respectively. In addition, the concentration for a half-maximal effect (EC50) in the experiment on FL5.12/Bcl-2 cells is above 500 nM.

On to `CC1(C)CCC(CN2CCN(c3ccc(C(=O)NS(=O)(=O)c4ccc(NN5CCCCC5)c([N+](=O)[O-])c4)c(Oc4ccc5[nH]ccc5c4)c3)CC2)=C(c2ccc(Cl)cc2)C1` [Example 284, 4-(4-{[2-(4-chlorophenyl)-4,4-dimethylcyclohex-1-en-1-yl]methyl}piperazin-1-yl)-2-(1H-indol-5-yloxy)-N-{[3-nitro-4-(piperidin-1-ylamino)phenyl]sulfonyl}benzamide], for which the results for the Ki on GST-Bcl-2 and on GST-Bcl-XL were 1.55 nM and above 660 nM, respectively. Moreover, the EC50 in the experiment with FL5.12/Bcl-2 cells was above 500 nM.

For the compound `Cn1ncc(-c2ccc(Cl)cc2)c1CN1CCN(c2ccc(C(=O)NS(=O)(=O)c3ccc(NCC4CCOCC4)c([N+](=O)[O-])c3)c(Oc3ccc4[nH]ccc4c3)c2)CC1` [Example 285, 4-(4-{[4-(4-chlorophenyl)-1-methyl-1H-pyrazol-5-yl]methyl}piperazin-1-yl)-2-(1H-indol-5-yloxy)-N-({3-nitro-4-[(tetrahydro-2H-pyran-4-ylmethyl)amino]phenyl}sulfonyl)benzamide], the Ki is 6.99 nM on GST-Bcl-2 and above 660 nM on GST-Bcl-XL. The EC50 in the experiment on FL5.12/Bcl-2 cells was above 500 nM.

Consider `CC1(C)CCC(CN2CCN(c3ccc(C(=O)NS(=O)(=O)c4ccc(OCC5(C)COC5)c([N+](=O)[O-])c4)c(Oc4ccc5[nH]ccc5c4)c3)CC2)=C(c2ccc(Cl)cc2)C1` [Example 286, 4-(4-{[2-(4-chlorophenyl)-4,4-dimethylcyclohex-1-en-1-yl]methyl}piperazin-1-yl)-2-(1H-indol-5-yloxy)-N-({4-[(3-methyloxetan-3-yl)methoxy]-3-nitrophenyl}sulfonyl)benzamide], for which the Ki at GST-Bcl-2 was 0.567 nM; on GST-Bcl-XL, above 660 nM. Also, the EC50 with FL5.12/Bcl-2 cells was 279 nM.

On to `CC1(C)CCC(CN2CCN(c3ccc(C(=O)NS(=O)(=O)c4ccc(NCc5cncs5)c([N+](=O)[O-])c4)c(Oc4ccc5[nH]ccc5c4)c3)CC2)=C(c2ccc(Cl)cc2)C1` [Example 288, 4-(4-{[2-(4-chlorophenyl)-4,4-dimethylcyclohex-1-en-1-yl]methyl}piperazin-1-yl)-2-(1H-indol-5-yloxy)-N-({3-nitro-4-[(1,3-thiazol-5-ylmethyl)amino]phenyl}sulfonyl)benzamide], for which the results for the Ki at GST-Bcl-2 and on GST-Bcl-XL were 0.177 nM and above 660 nM, respectively. In addition, the EC50 in the experiment with FL5.12/Bcl-2 cells came out at 64.3 nM.

On to `CC1(C)CCC(CN2CCN(c3ccc(C(=O)NS(=O)(=O)c4ccc(OCC5CCOCC5)c([N+](=O)[O-])c4)c(Oc4cccc5[nH]ccc45)c3)CC2)=C(c2ccc(Cl)cc2)C1` [Example 289, 4-(4-{[2-(4-chlorophenyl)-4,4-dimethylcyclohex-1-en-1-yl]methyl}piperazin-1-yl)-2-(1H-indol-4-yloxy)-N-{[3-nitro-4-(tetrahydro-2H-pyran-4-ylmethoxy)phenyl]sulfonyl}benzamide], for which the Ki on GST-Bcl-2 was 0.112 nM; on GST-Bcl-XL, above 660 nM. The EC50 in the experiment with FL5.12/Bcl-2 cells was determined as 27.4 nM.

In the case of `CC1(C)CCC(c2ccc(Cl)cc2)=C(CN2CCN(c3ccc(C(=O)NS(=O)(=O)c4ccc(NCC5CCOCC5)c([N+](=O)[O-])c4)c(Oc4ccc5[nH]ccc5c4)c3)CC2)C1` [Example 290, 4-(4-{[2-(4-chlorophenyl)-5,5-dimethylcyclohex-1-en-1-yl]methyl}piperazin-1-yl)-2-(1H-indol-5-yloxy)-N-({3-nitro-4-[(tetrahydro-2H-pyran-4-ylmethyl)amino]phenyl}sulfonyl)benzamide], the inhibitory constant (Ki) at GST-Bcl-2 was 0.365 nM; at GST-Bcl-XL, above 660 nM. Moreover, in the experiment on FL5.12/Bcl-2 cells, the EC50 is 44.7 nM.

On to `CC1(C)CCC(CN2CCN(c3ccc(C(=O)NS(=O)(=O)c4ccc(NCCC5CCOCC5)c([N+](=O)[O-])c4)c(Oc4ccc5[nH]ccc5c4)c3)CC2)=C(c2ccc(Cl)cc2)C1` [Example 291, 4-(4-{[2-(4-chlorophenyl)-4,4-dimethylcyclohex-1-en-1-yl]methyl}piperazin-1-yl)-2-(1H-indol-5-yloxy)-N-({3-nitro-4-[(2-tetrahydro-2H-pyran-4-ylethyl)amino]phenyl}sulfonyl)benzamide], for which the figures for the Ki on GST-Bcl-2 and at GST-Bcl-XL were 0.56 nM and above 660 nM, respectively. Further, the 50% effective concentration (EC50) with FL5.12/Bcl-2 cells was 58 nM.

For the compound `CC1(C)CCC(CN2CCN(c3ccc(C(=O)NS(=O)(=O)c4ccc(NCCOC(F)(F)F)c([N+](=O)[O-])c4)c(Oc4cccc5[nH]ccc45)c3)CC2)=C(c2ccc(Cl)cc2)C1` [Example 292, 4-(4-{[2-(4-chlorophenyl)-4,4-dimethylcyclohex-1-en-1-yl]methyl}piperazin-1-yl)-2-(1H-indol-4-yloxy)-N-[(3-nitro-4-{[2-(trifluoromethoxy)ethyl]amino}phenyl)sulfonyl]benzamide], the results for the Ki at GST-Bcl-2 and at GST-Bcl-XL were 0.598 nM and above 660 nM, respectively. In addition, the EC50 with FL5.12/Bcl-2 cells is 69.2 nM.

Regarding `COCCOCCNc1ccc(S(=O)(=O)NC(=O)c2ccc(N3CCN(CC4=C(c5ccc(Cl)cc5)CC(C)(C)CC4)CC3)cc2Oc2cccc3[nH]ccc23)cc1[N+](=O)[O-]` [Example 293, 4-(4-{[2-(4-chlorophenyl)-4,4-dimethylcyclohex-1-en-1-yl]methyl}piperazin-1-yl)-2-(1H-indol-4-yloxy)-N-[(4-{[2-(2-methoxyethoxy)ethyl]amino}-3-nitrophenyl)sulfonyl]benzamide], the inhibition constant Ki stood at 0.516 nM at GST-Bcl-2 and 260 nM on GST-Bcl-XL. Moreover, the EC50 with FL5.12/Bcl-2 cells is 68.1 nM.

On to `CC1(C)CCC(CN2CCN(c3ccc(C(=O)NS(=O)(=O)c4ccc(NCCCS(C)(=O)=O)c([N+](=O)[O-])c4)c(Oc4cccc5[nH]ccc45)c3)CC2)=C(c2ccc(Cl)cc2)C1` [Example 294, 4-(4-{[2-(4-chlorophenyl)-4,4-dimethylcyclohex-1-en-1-yl]methyl}piperazin-1-yl)-2-(1H-indol-4-yloxy)-N-[(4-{[3-(methylsulfonyl)propyl]amino}-3-nitrophenyl)sulfonyl]benzamide], for which the Ki on GST-Bcl-2 stood at 0.258 nM; on GST-Bcl-XL, 65.1 nM. For the same compound, the EC50 in the experiment with FL5.12/Bcl-2 cells is 59.8 nM.

On to `CC1(C)CCC(CN2CCN(c3ccc(C(=O)NS(=O)(=O)c4ccc(NCCCN5CCS(=O)(=O)CC5)c([N+](=O)[O-])c4)c(Oc4cccc5[nH]ccc45)c3)CC2)=C(c2ccc(Cl)cc2)C1` [Example 295, 4-(4-{[2-(4-chlorophenyl)-4,4-dimethylcyclohex-1-en-1-yl]methyl}piperazin-1-yl)-N-[(4-{[3-(1,1-dioxidothiomorpholin-4-yl)propyl]amino}-3-nitrophenyl)sulfonyl]-2-(1H-indol-4-yloxy)benzamide], for which the Ki at GST-Bcl-2 came to 0.183 nM; on GST-Bcl-XL it was 110 nM. The 50% effective concentration (EC50) with FL5.12/Bcl-2 cells was 46.3 nM.

Take `CC1(C)CCC(CN2CCN(c3ccc(C(=O)NS(=O)(=O)c4ccc(CCC5CCOCC5)c([N+](=O)[O-])c4)c(Oc4ccc5[nH]ccc5c4)c3)CC2)=C(c2ccc(Cl)cc2)C1` [Example 296, 4-(4-{[2-(4-chlorophenyl)-4,4-dimethylcyclohex-1-en-1-yl]methyl}piperazin-1-yl)-2-(1H-indol-5-yloxy)-N-{[3-nitro-4-(2-tetrahydro-2H-pyran-4-ylethyl)phenyl]sulfonyl}benzamide]: the values for the inhibition constant (Ki) at GST-Bcl-2 and on GST-Bcl-XL were 0.651 nM and above 660 nM, respectively. Also, the EC50 in the experiment with FL5.12/Bcl-2 cells stood at 182 nM.

On to `COCCOCCNc1ccc(S(=O)(=O)NC(=O)c2ccc(N3CCN(CC4=C(c5ccc(Cl)cc5)CC(C)(C)CC4)CC3)cc2Oc2ccc3[nH]ccc3c2)cc1[N+](=O)[O-]` [Example 298, 4-(4-{[2-(4-chlorophenyl)-4,4-dimethylcyclohex-1-en-1-yl]methyl}piperazin-1-yl)-2-(1H-indol-5-yloxy)-N-[(4-{[2-(2-methoxyethoxy)ethyl]amino}-3-nitrophenyl)sulfonyl]benzamide], for which the results for the Ki on GST-Bcl-2 and on GST-Bcl-XL were 0.315 nM and 446 nM, respectively. Moreover, the half-maximal effective concentration (EC50) with FL5.12/Bcl-2 cells stood at 19.5 nM.
